These results are taken from US20120283269A1, “Method and Compositions for Suppression of Aging” (HEALTH RESEARCH INC., priority 2009, published 2012).

Assay [1] deals with HT-p21-9 cells. The following applies: HT-p21-9 cells; Huang et al. 2009; cited from earlier work.
In assay [2] the test system is HT-p21-9 cells. In words: Colony formation / proliferative potential after drug removal, HT-p21-9 cells. In kind it is cell-based, human. Here is the method:
(§1) FIG. 1. Nutlin-3a converted senescence into quiescence. a. […] Cells were stained for beta-Gal and photographed (original magnification ×400). Bar scale—50 μm. b. […] Then cells were cultured in fresh medium until colonies become visible. Dishes were stained with crystal violet and photographed on day 4 (control) or on day 9 (IPTG- and nutlin-3a-treated).c. […] Before wash. Live HT-p21-9 cells (expressing GFP for better visualization of live cells) were photographed (original magnification ×100) under blue light. 3 d wash. Three days after drug removal. 9 d wash. Nine days after drug removal, cells were stained with crystal violet and photographed. d. Nutlin-3a dose response. […] After 3 days, the plates were washed and cells were incubated for an additional 9 days in fresh medium, stained with crystal violet and photographed. e. Colonies per dish. […] After 3 days, the plates were washed and cells were incubated for an additional 9 days in fresh medium. Colonies were counted and results are shown as percent of control (IPTG alone). f. Cells per dish. As in panel e. Cells were trypsinized and counted. Results are shown as percent of control (IPTG alone).
FIG. 3. […] Immunoblot. […] Immunoblot was performed as described in the methods for Example 1 below. b. Immunoblot. […] Immunoblot was performed as described in Methods. c. […] After 3 days, cells were washed and incubated in fresh medium w/o drugs for an additional 7 days. Cells were counted and are shown as percent of IPTG alone. d. […] Cells were treated with either IPTG alone (black bars) or IPTG plus rapamycin (white bars) or plus nutlin-3a (grey bars). On days 2, 3, 4, and 5 cells were lysed and protein content per well was measured. […] Cells were labeled with [^35S]methionine/cysteine as described in Methods for Example 1.
FIG. 6. […] Nine days after drug removal. a. Cell number per dish. Cells per dish were counted. b. Cell number per a colony. Number of cells per colony was calculated. A number of cells per colony was 200-250 (approximately equals to 8 divisions) by day 9.
(§2) Cell lines and reagents. HT-p21-9 and HT-p21-a cells are derivatives of HT1080 human fibrosarcoma cells, where p21 expression can be turned on or off using isopropyl-thio-galactosidase (IPTG) (7, 16, 28, 29, 36). […] HT-p16 cells are derivatives of HT1080 cells in which p16 expression can be turned on or off using IPTG (16, 36). WI-38-Tert, WI-38 are fibroblasts immortalized by telomerase. HT-p21-GSE56 cells: p53 inhibiting peptide GSE56 (18) was introduced into HT1080 p21-9 cells via a retroviral vector LXSE (37). Cells were grown in high glucose DMEM with 10% FC2 serum. WI-38-tert cells were grown in low glucose DMEM with 10% FCS. Rapamycin was obtained from LC Laboratories (Woburn, Mass.). IPTG (final concentration of 50 μg/ml) and FC2 were obtained from Sigma-Aldrich (St. Louis, Mo.).
Colony formation assay. Plates were fixed and stained with 1.0% methylene blue or with crystal violet (13).

The subject of assay [3] is mTOR pathway. In words: Immunoblot for mTOR pathway (p-S6, p-4E-BP1, cyclin D1) in HT-p21 cells. In kind it is cell-based, human. The procedure: FIG. 3. […] Immunoblot. […] Immunoblot. […] Immunoblot was performed as described in Methods. c. […] After 3 days, cells were washed and incubated in fresh medium w/o drugs for an additional 7 days. […] On days 2, 3, 4, and 5 cells were lysed and protein content per well was measured.
Cell lines and reagents. […] WI-38-Tert, WI-38 are fibroblasts immortalized by telomerase. […] Cells were grown in high glucose DMEM with 10% FC2 serum. WI-38-tert cells were grown in low glucose DMEM with 10% FCS. Rapamycin was obtained from LC Laboratories (Woburn, Mass.). IPTG (final concentration of 50 μg/ml) and FC2 were obtained from Sigma-Aldrich (St. Louis, Mo.).

Assay [4] relates to mTOR pathway. In words: Immunoblot for p53, p-S6, p-S6K in WI-38-tert fibroblasts. It is filed as cell-based, human. Here is the method:
FIG. 4. […] HT-p21-a cells were treated with IPTG and infected with Ad-p53. After 3 days, cells were photographed (original magnification ×200): Upper panel. Under blue light to visualize cells expressing p53 (green cells). Lower panel. Under visible light to visualize all cells. Red arrows indicate cells lacking p53 expression. All of these cells show large, flat cell morphology. Green arrows indicate cells expressing p53. b-d. […] After 1 day, cells were lysed and immunoblot was performed as described in Methods for Example 1. c. […] Cells were then stained for beta-Gal activity and microphotographed. Scale bar—50 μm.d. […] Cells were then trypsinized and counted. […] Results are shown as percent of control.
FIG. 12. […] Immunoblot for p53, p-S6, p-S6K, S6 and actin was performed as described in Methods for Example 1.
Immunoblot analysis. Proteins were separated on 4-15% gradient Tris-HCl gels (Bio-Rad). The following antibodies were used: mouse anti-actin from Santa Cruz Biotechnology, rabbit anti-phospho-S6 (Ser240/244) and (Ser235/236), mouse anti-S6, mouse anti-phospho-p70 S6 kinase (Thr389), mouse anti-p21 and anti-p53, rabbit anti-phospho-4E-BP1 (Thr37/46) from Cell Signaling; mouse anti-4E-BP1 from Invitrogen, mouse anti-p53 (Ab-6) from Calbiochem.

Assay [5] has as its system HT-p21-9 cells. The experiment in a line: Senescent morphology and beta-Gal staining of HT-p21-9 cells (IPTG-induced p21). In kind it is cell-based, human. The following applies: for cell divisions / arrest in the presence of nutlin-3a alone: nutlin-3a (10 μM), low cell density. The procedure: as §1
FIG. 5. Senescent versus quiescent morphology. […] Live cells, visualized with GFP (×100). In control, cells underwent 3 divisions, forming micro-colony.
as §2
Beta-galactosidase staining Beta-gal staining was performed using Senescence-galactosidase staining kit (Cell Signaling Technology).

Where [6] appears, read: IPTG plus 10 μM nutlin-3a, 24 hr.
Where [7] appears, read: 200 μM H2O2 30 min, then 10 μM nutlin-3a, 1 day.

Entries after “also recorded” stand apart in the source; their conditions may differ.

On to `COc1ccc(C2=N[C@@H](c3ccc(Cl)cc3)[C@@H](c3ccc(Cl)cc3)N2C(=O)N2CCNC(=O)C2)c(OC(C)C)c1` [nutlin-3a], for which the “cell cycle arrest on induction of p53 by nutlin-3a” value with HT-p21-9 cells [1] was “reversible cell cycle arrest (quiescence)”. Moreover, the “proliferative potential and clonogenicity of IPTG-treated cells” value in the assay on HT-p21-9 cells [2] (IPTG plus nutlin-3a 3 days, washed, fresh medium) is “retained the proliferative potential and clonogenicity”. Also, in the assay with HT-p21-9 cells [2] (IPTG+nutlin-3a 3 days, day 9 after drug removal), the “number of cells per colony” value is 200-250. Also, the “potency in suppression of senescence (preservation of proliferative potential)” value in the assay with HT-p21-9 cells [2] (IPTG-treated HT-p21-9 cells) is listed as “equally potent”. Also, the “reversibility of arrest (colony formation upon removal)” value with HT-p21-9 cells [2] (nutlin-3a alone 3 days, then washed) was “reversible arrest”. In addition, the “further suppression of senescence by nutlin-3a in the presence of rapamycin” value in the assay with HT-p21-9 cells [2] (rapamycin (500 nM) at doses that completely inhibit mTOR) is “could not further suppress senescence”. Further, in the assay with mTOR pathway [3] (setting [6]), the S6 phosphorylation entry was “inhibited S6 phosphorylation” and the “phosphorylation of 4E-BP1” value is “partially inhibited”. Further, the “cyclin D1 levels” value in the assay with mTOR pathway [3] (IPTG plus nutlin-3a) is “normalized elevated levels of cyclin D1”. Moreover, in the assay with mTOR pathway [3] (presence or absence of IPTG, 18 hr), the mTOR pathway result is “inhibited the mTOR pathway both in the presence and absence of IPTG”. In the assay on mTOR pathway [4] (setting [7]), the “S6 phosphorylation in H2O2-treated WI-38-tert cells” value was “inhibited S6 phosphorylation” and the “p53 level in H2O2-treated WI-38-tert cells” value is recorded as “induced p53”. The “S6K and S6 phosphorylation” value with mTOR pathway [4] (concentrations that induce p53, 24 hr) was “inhibited S6K and S6 phosphorylation”. Further, the “cell morphology and SA-beta-Gal staining” value in the assay with HT-p21-9 cells [5] (10 μM nutlin-3a alone, 3 days) is “remained small, lean and SA-beta-Gal-negative”. For the same compound, the “senescent morphology caused by IPTG” value in the assay with HT-p21-9 cells [5] (IPTG plus compound (10 μM nutlin-3a), 3 days) was “prevented the senescent morphology caused by IPTG; also recorded: suppressed senescence in IPTG-treated HT-p21-9 cells only”. Besides, the “cytostatic effect of IPTG” value in the assay on HT-p21-9 cells [5] (IPTG plus nutlin-3a) is recorded as “did not abrogate the cytostatic effect of IPTG”. Also, the “cell divisions / arrest in the presence of nutlin-3a alone” value with HT-p21-9 cells [5] (3 days) was “underwent one division and did not proliferate further”. The “cell divisions / arrest in the presence of nutlin-3a alone” value in the assay on HT-p21-9 cells [5] (3 days, listed as Nutlin-3a) is on record as “arrested after one division with normal cell morphology”.
